Results as given in patent US6506737B1, “Antimicrobial phosphonium and sulfonium polyhalide compositions” (Ecolab, Inc., priority 2000, dated 2003).

Columns and labels:
S. aureus = assay: Biocidal efficacy, log reduction of S. aureus (Table 2); format: cell-based, Staphylococcus aureus; details: total active 0.12-0.89 mmole/liter as listed per composition; for Log Reduction (S. aureus) (30 seconds): 30 seconds exposure; for Log Reduction (S. aureus) (60 seconds): 60 seconds exposure
[1] = system: Staphylococcus aureus (ATCC 6538); assay: Antimicrobial efficacy, log reduction at 12 grams per gallon in sterile deionized water (Table 3); format: cell-based; details: ambient temperature
Protocol: (§1) A 4% solution of trimethyl sulfonium triiodide and a solution of 20% hexadecyl tributyl phosphonium diiodochloride were tested at a concentration of 12 grams per gallon in sterile deionized water against Staphylococcus aureus (ATCC 6538).

[2] = pH of the test solution (Table 3); format: physicochemical; details: test substance at 12 grams per gallon in sterile deionized water
Protocol: as §1

C[N+](C)(C)CCO.Cl[I-]I [choline chloro diiodide]
Log Reduction (S. aureus) (30 seconds) (S. aureus): >6.9
Log Reduction (S. aureus) (60 seconds) (S. aureus): >6.9

CCCC[N+](CCCC)(CCCC)CCCC.Cl[I-]I [tetrabutyl ammonium chloro diiodide]
Log Reduction (S. aureus) (30 seconds) (S. aureus): >6.4
Log Reduction (S. aureus) (60 seconds) (S. aureus): >6.4

C[N+](C)(C)C.Cl[I-]I [tetramethyl ammonium chloro diiodide]
Log Reduction (S. aureus) (30 seconds) (S. aureus): 4.0
Log Reduction (S. aureus) (60 seconds) (S. aureus): >6.8

CCCCCCCCCCCCCCCC[P+](CCCC)(CCCC)CCCC.Cl[I-]I [tributyl hexadecyl phosphonium chloro diiodide]
Log Reduction (S. aureus) (30 seconds) (S. aureus): 5.0
Log Reduction (S. aureus) (60 seconds) (S. aureus): 6.2
Log Reduction ([1]; exposure time 15 seconds): 3.74
Log Reduction ([1]; exposure time 30 seconds): 4.98
Log Reduction ([1]; exposure time 5 minutes, listed as 20% hexadecyl tributyl phosphonium diiodochloride): 6.21
pH [2]: 4.61

C[S+](C)C.I[I-]I [trimethyl sulfonium triiodide]
Log Reduction (S. aureus) (30 seconds) (S. aureus): >7.0
Log Reduction (S. aureus) (60 seconds) (S. aureus): >7.0
Log Reduction ([1]; exposure time 15 seconds): 4.67
Log Reduction ([1]; exposure time 30 seconds, listed as 4% trimethyl sulfonium triiodide): >6.95
Log Reduction ([1]; exposure time 5 minutes): >6.95
pH [2]: 2.52
